Assay results taken from patent US11745181B2, “Devices and methods for bioassay” (Unchained Labs, priority 2017, dated 2023).

Legend:
[1] = test system: zebrafish larvae Tg(fli1:EGFP); assay: High-resolution fluorescence-microscopy imaging of vessel sprouting and morphology in zebrafish larvae; assay type: in vivo; settings: 0.1 μM, 1 μM, or 5 μM, replenished every 24 hours
Text: In this example, green fluorescent zebrafish embryos were loaded into the fluidic chambers of μZMount, a non-limiting exemplary fluidic device with the structure provided in FIGS. 1-2 herein and dimensions that were within 5% of the target dimensions as provided herein with reference to the illustrative embodiment provided in FIGS. 1-2, and that includes a plurality of fluidic chambers having the features and within 5% of the target dimensions provided herein for the illustrative embodiment of FIGS. 2A-2B. […] These zebrafish were Tg(fli1:EGFP) and expressed enhanced GFP under the control of the fli1 promoter such that the entire vasculature fluoresces. The zebrafish embryos and larvae that developed therefrom, were visualized with high-resolution fluorescent microscopy.
Each different drug treatment was replenished every 24 hours, effectively dosing the zebrafish at 24, 48, 72, and 96 hours post initial drug treatment. The drug was added in a manner similar to replenishing the media. […]
Embryos were imaged at various time points while within the fluidic device, up to 5 dpf, using high-resolution fluorescence-microscopy. […]
Drug-mediated inhibition of intersegmental and subintestinal vessels sprouting was recorded using high-resolution fluorescence-microscopy.

[2] = test system: zebrafish embryos Tg(fli1:EGFP); assay: Heart rate measurement of zebrafish embryos/larvae in the μZMount fluidic device; assay type: in vivo; settings: 0.1 μM, 1 μM, or 5 μM for 48 or 96 hours; compared with published literature
Description: Each different drug treatment was replenished every 24 hours, effectively dosing the zebrafish at 24, 48, 72, and 96 hours post initial drug treatment. The drug was added in a manner similar to replenishing the media. At 4 dpf, each larvae was moved into its respective second bioassay region by adding 10 μl of media to the sample chamber and aspirated out quickly from the first outlet. The yolk of the zebrafish at this age has depleted enough to allow the fish to flow into the second bioassay region.
Heart rate was measured for no less than five embryos per treatment at 48 hours post fertilization (hpf) and 96 hpf. Of the heart rates measured, three of them were recorded using video image capturing techniques for future evaluation. The heart rates were measured by visually inspecting the heart beat and counting the number of beats in 15 seconds and then multiplying by 4.

Question: Which results are given for Cc1cc(C)c(/C=C2\C(=O)Nc3ccccc32)[nH]1 [SU-5416]?
Answer: dorsalization [1]: concentration dependent dorsalization; inhibition of intersegmental and subintestinal vessels sprouting (angiogenic development) ([1]; fluorescence microscopy): suppression of angiogenic development similar to published work; heart rates [2]: within the normal range
